Where “and” joins values, the source holds several entries; their conditions need not be identical. Equal entries are not always repeated.
What was measured:
[1] = 101.33 kPa, Liquid
[2] = xn = mol fraction of the nth substance listed; conditions: 101.33 kPa, Liquid

C1CCNC1 [pyrrolidine]
[1]
Conditions	mass density [kg/m3]
298.15 K	854.6
323.15 K	833.7

C1CCNC1 [pyrrolidine] + O
mass density, [2]
Conditions	298.15 K	323.15 K
x1 = 0.099	976 kg/m3	960 kg/m3
x1 = 0.1	973.9 kg/m3	963.6 kg/m3
x1 = 0.199	956.6 kg/m3	941.5 kg/m3
x1 = 0.204	952.8 kg/m3	937.2 kg/m3
x1 = 0.297	934.7 kg/m3	921.2 kg/m3
x1 = 0.299	938.8 kg/m3	924.5 kg/m3
x1 = 0.396	925.8 kg/m3	904 kg/m3
x1 = 0.399	925.4 kg/m3	907.4 kg/m3
x1 = 0.497	912.1 kg/m3	891.1 kg/m3
x1 = 0.498	911.5 kg/m3	891.2 kg/m3
x1 = 0.589	901.1 kg/m3	883.5 kg/m3
x1 = 0.596	900.2 kg/m3	879.9 kg/m3
x1 = 0.675	893.8 kg/m3	871.3 kg/m3
x1 = 0.697	893.4 kg/m3	868.5 kg/m3
x1 = 0.786	879.9 kg/m3	858.3 kg/m3
x1 = 0.796	877.1 kg/m3	858.6 kg/m3
x1 = 0.882	865.3 kg/m3	843.5 kg/m3
x1 = 0.888	865.6 kg/m3	845.6 kg/m3
x1 = 0.995	852.9 kg/m3 and 856.2 kg/m3	834.6 kg/m3 and 832.8 kg/m3

O [water] + C1CCNC1
Conditions	mass density [kg/m3]
[2], 323.15 K, x2 = 0	988.04

C1COCCN1 [tetrahydro-1,4-oxazine]
[1]
Conditions	mass density [kg/m3]
298.15 K	996
333.15 K	965.9

O [water]
[1]
Conditions	mass density [kg/m3]
323.15 K	988.04
333.15 K	983.2

C1COCCN1 [tetrahydro-1,4-oxazine] + O
mass density, [2]
Conditions	298.15 K	333.15 K
x1 = 0.1	1023.2 kg/m3 and 1010.6 kg/m3	1001.2 kg/m3 and 1005.4 kg/m3
x1 = 0.199	1031.5 kg/m3 and 1025.9 kg/m3	1010.5 kg/m3 and 1006.2 kg/m3
x1 = 0.298	1030.9 kg/m3	1010.6 kg/m3
x1 = 0.299	1029.6 kg/m3	1006.8 kg/m3
x1 = 0.398	1029.8 kg/m3 and 1028.4 kg/m3	1006.1 kg/m3 and 1005.1 kg/m3
x1 = 0.497	1023.4 kg/m3	1000.6 kg/m3
x1 = 0.498	1025.5 kg/m3	996.6 kg/m3
x1 = 0.591	1016.8 kg/m3	990.3 kg/m3
x1 = 0.597	1019.4 kg/m3	999 kg/m3
x1 = 0.692	1013.5 kg/m3	982.6 kg/m3
x1 = 0.696	1013.5 kg/m3	989.6 kg/m3
x1 = 0.793	1005.7 kg/m3	976 kg/m3
x1 = 0.796	1003.9 kg/m3	976.4 kg/m3
x1 = 0.895	997.4 kg/m3	968.9 kg/m3
x1 = 0.897	999.2 kg/m3	969.3 kg/m3
x1 = 0.995	996 kg/m3 and 994.9 kg/m3	967.3 kg/m3 and 964.4 kg/m3

O [water] + C1COCCN1
Conditions	mass density [kg/m3]
[2], 333.15 K, x2 = 0	983.2
